Assay results taken from patent publication US20040024055A1, “Pharmaceutical composition containing the exract of saururus chinensis baill useful as an anticancer agent and a process for the preparation thereof” (priority 2000, published 2004).
≈ marks a conversion by molar mass, not a printed value.

Assays:
[1] = tested on: KATO-III; assay: MTT analysis, anticancer activity; format: cell-based, human
[2] = tested on: BT-549; assay: MTT analysis, anticancer activity; format: cell-based, human; conditions: 10 μg/ml sample
[3] = tested on: MCF-7; assay: MTT analysis, anticancer activity; format: cell-based, human
[4] = tested on: SK-BR-3; assay: MTT analysis, anticancer activity; format: cell-based, human; conditions: 48 hr
[5] = tested on: T-47D; assay: MTT analysis, anticancer activity; format: cell-based, human; conditions: 48 hr
[6] = tested on: NCI-H69; assay: MTT analysis, anticancer activity; format: cell-based, human; conditions: 10 μg/ml sample
[7] = tested on: T98G; assay: MTT analysis, anticancer activity; format: cell-based, human; conditions: 48 hr
[8] = Solubility; format: physicochemical
[9] = tested on: HT1080; assay: MTT analysis, anticancer activity; format: cell-based, human; conditions: 48 hr
[10] = tested on: HS27; assay: MTT analysis, cytotoxicity against normal cell line; format: cell-based, human; conditions: 10 μg/ml sample
[11] = tested on: HS-578T; assay: MTT analysis, anticancer activity; format: cell-based, human; conditions: 10 μg/ml sample
[12] = tested on: SK-MEL-28; assay: MTT analysis, anticancer activity; format: cell-based, human; conditions: 48 hr
[13] = tested on: NIH-3T3; assay: MTT analysis, cytotoxicity against normal cell line; format: cell-based, mouse; conditions: 10 μg/ml sample
[14] = tested on: HT-29; assay: MTT analysis, anticancer activity; format: cell-based, human; conditions: 10 μg/ml sample
[15] = tested on: HS-746T; assay: MTT analysis, anticancer activity; format: cell-based, human; conditions: 10 μg/ml sample
[16] = tested on: Hep-2; assay: MTT analysis, anticancer activity; format: cell-based, human
[17] = tested on: A431; assay: MTT analysis, anticancer activity; format: cell-based, human; conditions: 48 hr
[18] = tested on: SK-N-SH; assay: MTT analysis, anticancer activity; format: cell-based, human; conditions: 48 hr
[19] = tested on: 3T3-L1; assay: MTT analysis, cytotoxicity against normal cell line; format: cell-based, mouse; conditions: 10 μg/ml sample
[20] = tested on: CPAE; assay: as above; format: cell-based, bovine; conditions: 10 μg/ml sample
[21] = tested on: ME-180; assay: MTT analysis, anticancer activity; format: cell-based, human; conditions: 10 μg/ml sample
[22] = tested on: LoVo; assay: MTT analysis, anticancer activity; format: cell-based, human; conditions: 10 μg/ml sample
[23] = tested on: 293; assay: MTT analysis, cytotoxicity against normal cell line; format: cell-based, human; conditions: 10 μg/ml sample
[24] = tested on: CHO; assay: as above; format: cell-based, Chinese hamster; conditions: 10 μg/ml sample
[25] = tested on: BT-20; assay: MTT analysis, anticancer activity; format: cell-based, human; conditions: 48 hr
[26] = tested on: HS683; assay: MTT analysis, anticancer activity; format: cell-based, human; conditions: 48 hr
[27] = tested on: SK-OV-3; assay: MTT analysis, anticancer activity; format: cell-based, human; conditions: 10 μg/ml sample
[28] = tested on: PC-3 prostate cancer cell line; assay: MTT analysis, anticancer activity; format: cell-based, human; conditions: 48 hr
Method: (§1) To be specific, SK-Hep-1 cell, which is liver cancer cell line, was added to 96-well microplate (Falcon, USA) with the concentration of 3×10^5 cells/ml by 100 μl per well. Each extracted and separated substance dissolved in DMSO was added to the well by 100 μl for the final concentration to be from 50 μg/ml to 0.0244 μg/ml, with 200 μl of final volume. Each cell was cultured for 48 hr in a culture medium of 37° C. and 5% CO2. After cultivation, 20 μl of phosphate buffer solution containing 5 mg/ml of MTT (3-[4,5-dimethylthiazol-2-yl]-2,5-diphenyltetrazoliumbromide, Sigma Co.) reagent was added to each well, and then cultured for 4 hr. After taking 100 μl of supernant from each culture medium, 100 μl of 0.04N hydrochloric acid-isopropanol was added. After letting alone overnight, absorbance was measured at 560 nm using automatic Eliza detector (Molecular Divices Corp., USA). Anticancer activity of each extracted and separated substance was calculated from the absorbance value by Equation 1 and was expressed in terms of cell.
(§2) Average Existence Rate(%)=(Absorbance of Treated Group)/(Absorbance of Control Group)×100

[29] = tested on: HeLa; assay: MTT analysis, anticancer activity; format: cell-based, human; conditions: 48 hr
[30] = tested on: SK-Hep-1 liver cancer cell line; assay: MTT analysis, anticancer activity; format: cell-based, human; conditions: for IC50 SK-Hep-1: 48 hr
Method: as §1, §2

[31] = tested on: DU-145 prostate cancer cell line; assay: MTT analysis, anticancer activity; format: cell-based, human; conditions: 48 hr
Method: as §1, §2

Compound	Existence rate class, BT-549 (in IC50 table) [2]	IC50 SK-BR-3 [4] [mg/L]	IC50 T-47D [5] [mg/L]	Existence rate class, NCI-H69 (in IC50 table) [6]	IC50 T98G [7] [mg/L]	Solubility in methanol, ethanol, ethyl acetate, chloroform and dimethylsulfoxide (DMSO) [8]	Solubility in water, acetone, ether and hexane [8]	IC50 HT1080 [9] [mg/L]	Existence rate class, HS27 (in IC50 table) [10]	Existence rate class, HS-578T (in IC50 table) [11]	IC50 SK-MEL-28 [12] [mg/L]	Existence rate class, NIH-3T3 (in IC50 table) [13]	Existence rate class, HT-29 (in IC50 table) [14]	Existence rate class, HS-746T (in IC50 table) [15]	IC50 A431 [17] [mg/L]	IC50 SK-N-SH [18] [mg/L]	Existence rate class, 3T3-L1 (in IC50 table) [19]	Existence rate class, CPAE (in IC50 table) [20]	Existence rate class, ME-180 (in IC50 table) [21]	Existence rate class, LoVo (in IC50 table) [22]	further results
COc1ccc(C(O)C(C)Oc2ccc(C3OC(c4ccc(OC(C)[C@@H](O)c5ccc(OC)c(OC)c5)c(OC)c4)C(C)C3C)cc2OC)cc1OC (single isomer, unassigned) [HNP-98701A, epi-manassantin A]	*^a (Existence rate larger than 60% for 10 μg/ml sample)	0.1698 (≈ 0.232 µM)	0.0400 (≈ 0.0546 µM)	* (Existence rate larger than 60% for 10 μg/ml sample)	0.2470 (≈ 0.337 µM)	highly soluble	insoluble	0.4267 (≈ 0.582 µM)	N.E. (Not effective; existence rate larger than 90% for 10 μg/ml sample)	N.E.^b (Not effective; existence rate larger than 90% for 10 μg/ml sample)	0.2544 (≈ 0.347 µM)	N.E. (Not effective; existence rate larger than 90% for 10 μg/ml sample)	* (Existence rate larger than 60% for 10 μg/ml sample)	* (Existence rate larger than 60% for 10 μg/ml sample)	0.4903 (≈ 0.669 µM)	1.2849 (≈ 1.75 µM)	N.E.^b (Not effective; existence rate larger than 90% for 10 μg/ml sample)	* (Existence rate larger than 60% for 10 μg/ml sample)	* (Existence rate larger than 60% for 10 μg/ml sample)	* (Existence rate larger than 60% for 10 μg/ml sample)	IC50 ([1]; Homo sapiens, KATO III, 48 h, read-out: IC50 KATO-III, MTT, 48 hr): 0.617 mg/L (≈ 0.842 µM); IC50 ([3]; Homo sapiens, MCF7, 48 h, read-out: IC50 MCF-7): > 10 mg/L; IC50 ([16]; Homo sapiens, HEp-2, 48 h, read-out: IC50 Hep-2, MTT, 48 hr): 0.0406 mg/L (≈ 0.0554 µM); Existence rate class, 293 (in IC50 table) [23]: *^a (Existence rate larger than 60% for 10 μg/ml sample); Existence rate class, CHO (in IC50 table) [24]: * (Existence rate larger than 60% for 10 μg/ml sample); IC50 BT-20 [25]: 0.0996 mg/L (≈ 0.136 µM); IC50 HS683 [26]: 0.5561 mg/L (≈ 0.759 µM); Existence rate class, SK-OV-3 (in IC50 table) [27]: N.E. (Not effective; existence rate larger than 90% for 10 μg/ml sample); IC50 PC-3 [28]: 0.1249 mg/L (≈ 0.17 µM); IC50 HeLa [29]: 0.4233 mg/L (≈ 0.578 µM); IC50 SK-Hep-1 [30]: 0.0795 mg/L (≈ 0.108 µM); IC50 DU-145 [31]: 0.0537 mg/L (≈ 0.0733 µM)
COc1ccc(C(O)C(C)Oc2ccc(C3OC(c4ccc(OC(C)[C@@H](O)c5ccc(OC)c(OC)c5)c(OC)c4)C(C)C3C)cc2OC)cc1OC (single isomer, unassigned) [HNP-98701B]	* (Existence rate larger than 60% for 10 μg/ml sample)	0.0866 (≈ 0.118 µM)	0.0167 (≈ 0.0228 µM)	* (Existence rate larger than 60% for 10 μg/ml sample)	0.1003 (≈ 0.137 µM)	highly soluble	insoluble	0.1882 (≈ 0.257 µM)	N.E. (Not effective; existence rate larger than 90% for 10 μg/ml sample)	N.E. (Not effective; existence rate larger than 90% for 10 μg/ml sample)	0.1123 (≈ 0.153 µM)	N.E. (Not effective; existence rate larger than 90% for 10 μg/ml sample)	* (Existence rate larger than 60% for 10 μg/ml sample)	* (Existence rate larger than 60% for 10 μg/ml sample)	0.2344 (≈ 0.32 µM)	0.4314 (≈ 0.589 µM)	N.E. (Not effective; existence rate larger than 90% for 10 μg/ml sample)	* (Existence rate larger than 60% for 10 μg/ml sample)	* (Existence rate larger than 60% for 10 μg/ml sample)	* (Existence rate larger than 60% for 10 μg/ml sample)	IC50 KATO-III ([1]; MTT, 48 hr): 0.4477 mg/L (≈ 0.611 µM); IC50 MCF-7 ([3]; MTT, 48 hr): >10 mg/L; IC50 Hep-2 ([16]; MTT, 48 hr): 0.0329 mg/L (≈ 0.0449 µM); Existence rate class, 293 (in IC50 table) [23]: * (Existence rate larger than 60% for 10 μg/ml sample); Existence rate class, CHO (in IC50 table) [24]: * (Existence rate larger than 60% for 10 μg/ml sample); IC50 BT-20 [25]: 0.0292 mg/L (≈ 0.0398 µM); IC50 HS683 [26]: 0.2325 mg/L (≈ 0.317 µM); Existence rate class, SK-OV-3 (in IC50 table) [27]: N.E. (Not effective; existence rate larger than 90% for 10 μg/ml sample); IC50 PC-3 [28]: 0.0695 mg/L (≈ 0.0948 µM); IC50 HeLa [29]: 0.1680 mg/L (≈ 0.229 µM); IC50 SK-Hep-1 [30]: 0.0388 mg/L (≈ 0.0529 µM); IC50 DU-145 [31]: 0.0184 mg/L (≈ 0.0251 µM)
O=c1[nH]cc(F)c(=O)[nH]1 [5-FU, 5-fluorouracil]	–	–	–	–	–	–	–	–	–	–	–	–	–	–	–	–	–	–	–	–	IC50 ([30]; Homo sapiens, SK-HEP1, 48 hr): > 50 mg/L
